Measurements reported in US20090099062A1 (priority 2007, published 2009).

What was measured:
Format in all cases: cell-based
MDA-MB-231 = experiment: Cell viability (CellTiter-Glo), MDA-MB-231; conditions: Homo sapiens; MDA-MB-231, 48 hr
Protocol: (§1) Cancer cell growth, viability, and apoptosis assays. HCT116, SW620, SW480, MDA-MB-231 cancer lines were maintained according to ATCC guidelines. For cell growth and viability assays, cells were seeded at 2000 cells/100 μl/well in 96-well plates. Cell number was measured at different time points using CellTiter-Glo® Luminescent Cell Viability Assay (Promega). For apoptosis assays, cells were seeded at 5000 cells/100 μl/well in 96-well plates. Drug was added for 24 hr and Caspase-3 and -7 activities were measured using Apo-ONE® Homogeneous Caspase-3/7 Assay (Promega).

[1] = test system: Wnt-mediated gene transcription; experiment: Topflash reporter assay in HEK 293 cells; conditions: Homo sapiens, HEK293; HEK 293 cells stimulated with Wnt3a, Topflash luciferase; read-out: EC50, inhibition of Wnt-mediated transcription
Protocol: Topflash reporter assay. HEK 293 cells stably expressing 8× Supertopflash were seeded in quadruplicate at 15,000 cells/well/100 μl of medium in 96 well-plate. […] Cells were lysed in passive lysis buffer (Promega), and luciferase was measured according to Promega's Steady-Glo protocol.

SW620 = experiment: Cell viability (CellTiter-Glo), SW620; conditions: Homo sapiens, SW-620; SW620, 48 hr
Protocol: as §1

SW480 = experiment: Cell viability (CellTiter-Glo), SW480; conditions: Homo sapiens; SW480, 48 hr
Protocol: as §1

Measured: EC50

Cc1cc(/C=C/c2ccc3cc(N(C)C)ccc3[n+]2C)c(C)n1-c1ccccc1 [pyrvinium, pyrvinium pamoate]
< 50 nM: all assays above
